Results as given in patent publication US9963476B2, “Antioxidant compound having anti atherosclerotic effect and preparation thereof” (Council of Scientific and Industrial Research, priority 2015, dated 2018).

Assays:
[1] = tested on: nitric oxide generation in HAEC; experiment: Intracellular nitric oxide levels by DAF-2DA fluorescence; format: cell-based, human; settings: 2.5 μM, 4 h
Experimental: Intracellular nitric oxide levels were monitored by using the Diaminofluorescein-diacetate (DAF-2DA) fluorescence probe. After the treatments, cells were washed with DPBS and incubated in fresh culture medium without fetal bovine serum (FBS). DAF-2DA was added at a final concentration of 5 μM, and the cells were incubated for 30 minutes. The cells were washed twice with DPBS and maintained in culture medium. Fluorescence was monitored by using Olympus fluorescence microscope with FITC filter (λex=488 nm and […]). Fluorescence intensity was calculated by Image-Pro plus7.0 software.
(§1) To gain mechanistic insight on Mito-Esc-mediated protection of endothelial cells from oxidant-induced endothelial cell death, initially we hypothesized that Mito-Esc may augment intracellular nitric oxide generation. To study this, HAEC were treated with both Mito-Esc and esculetin in the presence or absence of H2O2 for a period of 4 h and nitric oxide (NO) levels were monitored by DAF-2 derived green fluorescence. Previously, it has been shown that DAF-2 forms a fluorescent triazole-type product in the presence of an oxidant derived from nitric oxide and oxygen interaction (Proc. Natl. Acad. Sci. USA 99: 11127-11132; 2002.; Am. J. Physiol. Regul. Integ. Comp. Physiol. 286:R344-R431; 2004). […] Next, we investigated the possible role of endothelial nitric oxide synthase (eNOS) in mediating the Mito-Esc induced NO generation in HAEC. For this, endothelial cells were treated with various concentrations of Mito-Esc (1-5 μM) for a period of 8 h. […] To further substantiate the results of DAF fluorescence, eNOS phosphorylation was measured in HAEC incubated with either with H2O2 or Ang-II for 8 h in cells pretreated with Mito-Esc or native esculetin. It was observed that both H2O2 and Ang-II caused a reduction in Phospho eNOS (Ser-1177) levels (FIG. 4D). Ang-II treatment imposed a drastic inhibition of phospho-eNOS levels when compared to H2O2 treatment in endothelial cells (FIG. 4D).

[2] = tested on: mitochondrial content in HAEC; experiment: Mitotracker staining of mitochondrial content; settings: 2.5 μM, 8 h
Experimental: Mitochondrial content in cells was assessed by selectively loading the mitochondria with the red fluorescent dye Mitotracker (Invitrogen, Carlsbad, Calif.).

Apo E−/− mice aorta = experiment: Mito-Esc quantified by ESI-MS in cytosolic and mitochondrial fractions of ApoE−/− mice aortic tissue; format: in vivo; settings: 0.5 mg/kg/day in drinking water
Experimental: After the treatment, cells were washed thrice with PBS. Similarly Mito-Esculetin+ Ang-II treatment group, Ang-II alone treatment group and control Apo E^-/- mice aortic tissue was taken. The isolation of mitochondrial and cytosolic extracts was carried out using a commercially available Proteo Extract Cytosol/Mitochondria Fractionation Kit (Cat. no. QIA88-Merck, USA) according to manufacturer's instructions. Initially, mitochondrial and cytosolic fractions were separated using a commercially available kit as mentioned elsewhere. Mito-Esc was quantified in the mitochondrial and cytosolic fractions obtained from HAEC and aorta of ApoE^-/- mice of different treatment groups as mentioned in Animal Experiments section (Table-1). Electrospray ionization (ESI)-MS. ESI-MS (positive mode) measurements were performed using a quadrupole time-of-flight mass spectrometer (QSTAR XL, Applied Biosystems/MDS Sciex, Foster City, Calif., USA). The data acquisition was under the control of Analyst QS software (Applied Biosystems). For the CID (collision-induced dissociation) experiments, the precursor ions were selected using the quadrupole analyzer and the product ions were analyzed using the TOF analyzer.

[3] = tested on: eNOS phosphorylation (Ser-1177); experiment: Western blot of eNOS phosphorylation in HAEC; format: cell-based, human; settings: 8 h
Experimental: as §1

[4] = tested on: human aortic endothelial cells (HAEC); experiment: Trypan blue cell viability assay, oxidant-induced endothelial cell death; format: cell-based; settings: 2.5 μM, 2 h pretreatment, H2O2 500 μM or Ang-II 500 nM, 24 h
Experimental: Human aortic endothelial cells (HAECs) were obtained from ATCC (Manassas, Va.) and maintained (37° C. 5% CO2) in basal medium supplemented with 10% FBS, VEGF (5 ng/mL), hEGF (5 ng/mL), hFGF (5 ng/mL), IGF-1 (15 ng/mL), ascorbic acid (50 μg/mL), hydrocortisone (1 μg/mL), amphotericin (15 ng/mL), gentamicin (30 ng/mL) and heparin (0.75 Units/mL). Cells used in this study were between passages 4 and 9. Esculetin, Mito-Esc, TPP and nitric oxide synthase inhibitor (L-NAME) were added 2 h before the addition of H2O2 or Ang-II.
At the end of the treatments, cells were harvested and re-suspended in 0.4% trypan blue (Life Technologies) and percent cell viability was counted using cell countess chamber (Life Technologies).
For this, cells were pretreated for 2 h with either Mito-Esc or esculetin before they were incubated with either H2O2 or Ang-II.

SMILES: O=c1cc(CCCCCCCC[P+](c2ccccc2)(c2ccccc2)c2ccccc2)c2cc(O)c(O)cc2o1.[Br-] [Mito-Esc]
- DAF-2 fluorescence (NO production), compound alone [1]: greatly enhanced
- H2O2-mediated depletion of NO levels ([1]; H2O2 500 μM): significantly restored
- mitochondrial content, treatment alone compared to control [2]: increased mitochondrial content
- Mitochondrial fraction (Apo E−/− mice aorta): 2547 ± 286 nmol/mg protein
- phosphorylation of eNOS at Ser-1177 ([3]; 1-5 μM): dose-dependently increased
- oxidant-mediated decrease in eNOS-phosphorylation ([3]; H2O2 or Ang-II, pretreated cells): caused cells resistant to oxidant-mediated decrease
- oxidant (H2O2 and Ang-II)-induced endothelial cell death [4]: significantly inhibited
